Results: US10233189B2 (priority 2015, dated 2019)

Assay: Evaluation of stability in hepatic microsome
Format: in vitro ADME
Conditions: mouse hepatic microsome 0.25 mg/mL, 1 μM compound, 37° C., 30 minutes, NADPH-generating system

Cc1ccc(-c2nn(C(C)(C)C)c3ncnc(N)c23)cc1 [Compound 4 of Comparative Examples, 1-(tert-butyl)-3-(p-tolyl)pyrazolo[3,4-d]pyrimidin-4-amine]
percentage of the remaining tested compounds (remaining %): 0%
